Molecules are shown by their SMILES.

This assay addresses T1, Gamma secretase (Homo sapiens, UniProt P49768).
T1 construct: endogenous in cells; host or cells: 293 cells (T-REx, clone pTRE.15), salt-washed membrane preparation; only the substrate SPC99-Lon is transfected
The assay can be described thus: Gamma secretase activity assay (membranes of C99-expressing 293 cells, Aβ 40/Aβ 42 ECL immunoassay). Type of assay: biochemical. The settings on record: membranes incubated at 37 C for 1 h; Aβ 40 and Aβ 42 measured by ECL immunoassay; read-out: IC50 (concentration of compound producing 50% inhibition of enzyme activity). The method, then:
Gamma secretase activity was determined as described by Zhang et a. (Biochemistry, 40 (16), 5049-5055, 2001). Activity is expressed either as a percent inhibition or as the concentration of compound producing 50% inhibition of enzyme activity.
Reagents. Antibodies W02, G2-10, and G2-11 were obtained from Dr. Konrad Beyreuther (University of Heidelberg, Heidelberg, Germany). W02 recognizes residues 5-8 of A peptide, while G2-10 and G2-11 recognize the specific C-terminal structure of A 40 and A 42, respectively. Biotin-4G8 was purchased from Senetec (St. Louis, Mo.). All tissue culture reagents used in this work were from Life Technologies, Inc., unless otherwise specified. Pepstatin A was purchased from Roche Molecular Biochemicals; DFK167 was from Enzyme Systems Products (Livermore, Calif.).
cDNA Constructs, Tissue Culture, and Cell Line Construction. The construct SPC99-Lon, which contains the first 18 residues and the C-terminal 99 amino acids of APP carrying the London mutation, has been described (Zhang, L., Song, L., and Parker, E. (1999) J. Biol. Chem. 274, 8966-8972). Upon insertion into the membrane, the 17 amino acid signal peptide is processed, leaving an additional leucine at the N-terminus of A. SPC99-Ion was cloned into the pcDNA4/TO vector (Invitrogen) and transfected into 293 cells stably transfected with pcDNA6/TR, which is provided in the T-REx system (Invitrogen). The transfected cells were selected in Dulbecco's modified Eagle's media (DMEM) supplemented with 10% fetal bovine serum, 100 units/mL penicillin, 100 µg/mL streptomycin, 250 µg/mL zeocin, and 5 µg/mL blasticidin (Invitrogen). Colonies were screened for A production by inducing C99 expression with […] tetracycline for 16-20 h and analyzing conditioned media with a sandwich immunoassay (see below). One of the clones, designated as pTRE.15, was used in these studies.
Membrane Preparation. C99 expression in cells was induced with […] tetracycline for 20 h. The cells were pretreated with […] 12-myristate 13-acetate (PMA) and […] brefeldin A (BFA) for 5-6 h at 37 C before harvesting. The cells were washed 3 times with cold phosphate-buffered saline (PBS) and harvested in buffer A containing 20 mM Hepes (pH 7.5), 250 mM sucrose, 50 mM KCl, 2 mM EDTA, 2 mM EGTA, and Complete protease inhibitor tablets (Roche Molecular Biochemicals). The cell pellets were flash-frozen in liquid nitrogen and stored at −70 C. before use.
To make membranes, the cells were resuspended in buffer A and lysed in a nitrogen bomb at 600 psi. The cell lysate was centrifuged at 1500 g for 10 min to remove nuclei and large cell debris. The supernatant was centrifuged at 100000 g for 1 h. The membrane pellet was resuspended in buffer A plus 0.5 M NaCl, and the membranes were collected by centrifugation at 200000 g for 1 h. The salt-washed membrane pellet was washed again in buffer A and centrifuged at 100000 g for 1 h. The final membrane pellet was resuspended in a small volume of buffer A using a Teflon-glass homogenizer. The protein concentration was determined, and membrane aliquots were flash-frozen in liquid nitrogen and stored at −70 C.
-Secretase Reaction and A Analysis. To measure -secretase activity, membranes were incubated at 37 C for 1 h in 50 L of buffer containing 20 mM Hepes (pH 7.0) and 2 mM EDTA. At the end of the incubation, Aβ 40 and Aβ 42 were measured using an electrochemiluminescence (ECL)-based immunoassay. Aβ 40 was identified with antibody pairs TAG-G2-10 and biotin-W02, while A 42 was identified with TAG-G2-11 and biotin-4G8. The ECL signal was measured using an ECL-M8 instrument (IGEN International, Inc.) according to the manufacturer's instructions. The data presented were the means of the duplicate or triplicate measurements in each experiment. The characteristics of -secretase activity described were confirmed using more than five independent membrane preparations.

On to `COC(=O)c1ccc(CN(C2CCCN(C(=O)OC(C)(C)C)C2)S(=O)(=O)c2ccc(C(F)(F)F)cc2)cc1` (centres unmarked) [Example 14], for which the IC50 is 28 to 345 nM.
Then `COC(=O)c1ccc(CN(C2CCCN(C(=O)OC(C)(C)C)C2)S(=O)(=O)c2ccc(OC(F)(F)F)cc2)cc1` (centres unmarked) [Example 16], with 28 to 345 nM; and `COC(=O)c1ccc(CN(C2CCCN(C(=O)OC(C)(C)C)C2)S(=O)(=O)c2ccc([N+](=O)[O-])cc2)cc1` (centres unmarked) [Example 17], with 28 to 345 nM.
Regarding `COC(=O)c1ccc(CN(C2CCCN(C(=O)OC(C)(C)C)C2)S(=O)(=O)c2ccc(C#N)cc2)cc1` (centres unmarked) [Example 18], the IC50 lay within 28 to 345 nM.
With `COC(=O)c1ccc(CN(C2CCCN(C(=O)OC(C)(C)C)C2)S(=O)(=O)c2ccc(-c3ccccc3)cc2)cc1` (centres unmarked) [Example 20], the IC50 lay within 28 to 345 nM.
On to `COC(=O)c1ccc(CN(C2CCCN(C(=O)Cc3cccnc3)C2)S(=O)(=O)c2ccc(Cl)cc2)cc1` (centres unmarked) [Example 56], for which the IC50 lay in the range of 28 to 345 nM.
As for `COC(=O)c1ccc(CN(C2CCCN(C(=O)Cc3ccccc3)C2)S(=O)(=O)c2ccc(Cl)cc2)cc1` (centres unmarked) [Example 62], the figure is 28 to 345 nM; as for `COC(=O)c1ccc(CN(C2CCCN(C(=O)C(C)C)C2)S(=O)(=O)c2ccc(OC)cc2)cc1` (centres unmarked) [Example 68], 28 to 345 nM.
Take `COC(=O)c1ccc(CN(C2CCCN(C(=O)Cc3cc(F)cc(F)c3)C2)S(=O)(=O)c2ccc(C(F)(F)F)cc2)cc1` (centres unmarked) [Example 79]: the IC50 was in the range of 28 to 345 nM.
As for `CC1COCC(C)N1C(=O)N1CCCC(N(c2cc(F)ccc2F)S(=O)(=O)c2ccc(Cl)cc2)C1` (centres unmarked) [Example 161], the figure is 28 to 345 nM.
As for `CC1CCCCN1C(=O)N1CCCC(N(c2cc(F)ccc2F)S(=O)(=O)c2ccc(Cl)cc2)C1` (centres unmarked) [Example 162], the figure is 28 to 345 nM; as for `CN1CCN(C(=O)N2CCCC(N(c3cc(F)ccc3F)S(=O)(=O)c3ccc(Cl)cc3)C2)CC1` (centres unmarked) [Example 180], 28 to 345 nM.
As for `O=C(N1CCN(CCOCCO)CC1)N1CCCC(N(c2cc(F)ccc2F)S(=O)(=O)c2ccc(Cl)cc2)C1` (centres unmarked) [Example 181], the IC50 is 28 to 345 nM.
As for `O=C(N1CCN(CCO)CC1)N1CCCC(N(c2cc(F)ccc2F)S(=O)(=O)c2ccc(Cl)cc2)C1` (centres unmarked) [Example 182], the figure is 28 to 345 nM; as for `O=C(N1CCCC(N(c2cc(F)ccc2F)S(=O)(=O)c2ccc(Cl)cc2)C1)N1CCCCC1CO` (centres unmarked) [Example 192], 28 to 345 nM; as for `CN(C)CC1CCCCN1C(=O)N1CCC[C@H](N(c2cc(F)ccc2F)S(=O)(=O)c2ccc(Cl)cc2)C1` (some centres unmarked) [Example 213], 28 to 345 nM.
As for `C[C@@H]1CN(C(=O)OC(C)(C)C)CCN1C(=O)N1CCC[C@H](N(c2cc(F)ccc2F)S(=O)(=O)c2ccc(Cl)cc2)C1` [Example 214], the figure is 28 to 345 nM.
